Assay [1] concerns the target T1, human oxytocin (hOT) receptor (Homo sapiens, UniProt P30559).
T1 construct: expressed in transfected cells
T1 sequence (P30559 1-389): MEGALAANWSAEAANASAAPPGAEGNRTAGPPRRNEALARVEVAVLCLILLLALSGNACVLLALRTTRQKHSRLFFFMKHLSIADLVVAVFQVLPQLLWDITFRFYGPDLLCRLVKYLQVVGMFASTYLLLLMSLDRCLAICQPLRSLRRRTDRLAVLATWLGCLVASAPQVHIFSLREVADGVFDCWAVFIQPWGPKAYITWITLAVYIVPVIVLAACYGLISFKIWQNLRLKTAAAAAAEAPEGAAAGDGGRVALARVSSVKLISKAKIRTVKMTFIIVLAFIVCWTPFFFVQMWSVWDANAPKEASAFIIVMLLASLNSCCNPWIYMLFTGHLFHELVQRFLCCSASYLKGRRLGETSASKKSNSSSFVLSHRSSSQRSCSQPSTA
The assay can be described thus: luciferase-based transcriptional reporter assay, selectivity hOT versus hV1a. It counts as cell-based. The method, then:
(§1) Agonist activity of compounds on the hV1a receptor was determined in a transcriptional reporter assay by transiently transfecting a hV1a receptor expression DNA into HEK-293 cells in concert with a reporter DNA containing intracellular calcium responsive promoter elements regulating expression of firefly luciferase. See Boss, V., Talpade, D. J., Murphy, T. J. J. Biol. Chem. 1996, May 3; 271(18), 10429-10432 for further guidance on this assay. […] To determine selectivity, compounds were tested in luciferase-based transcriptional reporter assays expressing the human oxytocin (hOT) receptor. Assays for other receptors (hV2, hV1b, rat V1a and rat V2) were also conducted.
(§2) The EC50 value given is the geometric mean expressed in nanomol/L (nM). Selectivity values are given as EC50 ratios.

In the next assay the target is T2, hV1a receptor (Homo sapiens, UniProt P37288).
T2 construct: expressed in transfected cells; host or cells: HEK-293
T2 sequence (P37288 whole entry): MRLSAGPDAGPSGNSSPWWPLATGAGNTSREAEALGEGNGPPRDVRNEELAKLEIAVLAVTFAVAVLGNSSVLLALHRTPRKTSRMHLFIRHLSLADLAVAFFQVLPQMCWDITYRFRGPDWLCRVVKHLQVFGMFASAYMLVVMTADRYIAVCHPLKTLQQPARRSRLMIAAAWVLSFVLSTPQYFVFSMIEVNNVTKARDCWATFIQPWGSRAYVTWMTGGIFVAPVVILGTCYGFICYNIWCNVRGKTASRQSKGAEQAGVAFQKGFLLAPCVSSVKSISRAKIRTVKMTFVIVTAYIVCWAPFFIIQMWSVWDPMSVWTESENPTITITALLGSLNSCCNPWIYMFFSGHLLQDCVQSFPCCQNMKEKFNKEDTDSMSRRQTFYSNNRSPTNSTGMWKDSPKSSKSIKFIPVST
The experiment in a line: hV1a receptor transcriptional reporter (luciferase) agonist assay. In kind it is cell-based. The procedure: as §1, §2

[2] abbreviates: class symbol, agonist efficacy at hOT receptor compared to AVP.
[3] abbreviates: HEK-293 cells transiently transfected with hV1a receptor, 5 hours exposure, geometric mean, read-out: EC50 hV1a receptor.

pEC50: −log10 of the molar value. Read-outs that look alike come from different tables or passages of the source. Starred links: 1 amine or outer side, 2 acyl side, 3 side chain; linkers in the order of their positions; H or OH if unused. Positions of bridges follow the written chain, without caps; N, C: chain ends. Non-standard residues stand in square brackets, D forms with d. Residues, ends and D or L forms follow the SMILES beside them. *: point of attachment. Ala(4-thiazolyl) = N[C@@H](Cc1cscn1)C(=O)O; X3 = CC(C)CCNCCC[C@H](N[*:1])C(=O)[*:2]; Ala(2-furyl) = N[C@@H](Cc1ccco1)C(=O)O; Orn(iPr) = CC(C)NCCC[C@H](N)C(=O)O; Dab(iPr) = CC(C)NCC[C@H](N)C(=O)O; 2Pal = N[C@@H](Cc1ccccn1)C(=O)O; 2Thi = N[C@@H](Cc1cccs1)C(=O)O; 3Thi = N[C@@H](Cc1ccsc1)C(=O)O; Aad = N[C@@H](CCCC(=O)O)C(=O)O; Orn = NCCC[C@H](N)C(=O)O; Dab = NCC[C@H](N)C(=O)O; NHiBu = CC(C)CN*; NHOH = ON*

Broadly, the pEC50 is the EC50 on a negative log10 scale, so that one unit is a factor of ten.

In the case of `CC[C@H](C)[C@@H]1NC(=O)[C@H](Cc2ccccn2)NC(=O)[C@@H](N)CSSC[C@@H](C(=O)N2CCC[C@H]2C(=O)N[C@@H](CCN)C(=O)NCC(N)=O)NC(=O)[C@H](CC(N)=O)NC(=O)[C@H](CCC(N)=O)NC1=O` [Compound 17] (H-C[2Pal]IQNCP[Dab]G-NH2; disulfide 1-6), the “selectivity hOT/hV1a” value in assay [1] is “+ (key: +: selective hV1a receptor agonist; EC50 hOT/hV1a ratio not determined due to very low agonist efficacy (<30% compared to AVP) at the hOT receptor)”. Also, the pEC50 at hV1a receptor is 7.52.
Turning to `CC[C@H](C)[C@@H]1NC(=O)[C@H](Cc2cccs2)NC(=O)[C@@H](N)CSSC[C@@H](C(=O)N2CCC[C@H]2C(=O)N[C@@H](CCN)C(=O)NCC(N)=O)NC(=O)[C@H](CC(N)=O)NC(=O)[C@H](CC(N)=O)NC1=O` [Compound 36] (H-C[2Thi]INNCP[Dab]G-NH2; disulfide 1-6; N-terminus and C-terminus assumed), in assay [1] (setting [2]), the “selectivity hOT/hV1a” value was “+ (selective hV1a receptor agonist; EC50 hOT/hV1a ratio not determined due to very low agonist efficacy (<30% compared to AVP) at the hOT receptor)”. Further, the pEC50 at hV1a receptor (setting [3]) is 7.94.
Taken in the same sequence, the figures for `CC[C@H](C)[C@@H]1NC(=O)[C@H](Cc2ccccc2)NC(=O)[C@@H](N)CSSC[C@@H](C(=O)N2CCC[C@H]2C(=O)N[C@@H](CCCN)C(=O)NCC(N)=O)NC(=O)[C@H](CC(N)=O)NC(=O)[C@H](CC(=O)NC)NC1=O` [Compound 49] (H-CFID(NHMe)NCP[Orn]G-NH2; disulfide 1-6; N-terminus and C-terminus assumed) were “+ (selective hV1a receptor agonist; EC50 hOT/hV1a ratio not determined due to very low agonist efficacy (<30% compared to AVP) at the hOT receptor)” and 8.45.
Taken in the same sequence, the figures for `CC[C@H](C)[C@@H]1NC(=O)[C@H](Cc2ccccc2)NC(=O)[C@@H](N)CSSC[C@@H](C(=O)N2CCC[C@H]2C(=O)N[C@@H](CCCN)C(=O)NCC(N)=O)NC(=O)[C@H](CC(N)=O)NC(=O)[C@H](CCC(=O)NCC(C)C)NC1=O` [Compound 21] (H-CFIE(NHiBu)NCP[Orn]G-NH2; disulfide 1-6) were “+ (selective hV1a receptor agonist; EC50 hOT/hV1a ratio not determined due to very low agonist efficacy (<30% compared to AVP) at the hOT receptor)” and 7.68.
With `CC[C@H](C)[C@@H]1NC(=O)[C@H](Cc2ccccc2)NC(=O)[C@@H](N)CSSC[C@@H](C(=O)N2CCC[C@H]2C(=O)N[C@@H](CCCNCCC(C)C)C(=O)NCC(N)=O)NC(=O)[C@H](CC(N)=O)NC(=O)[C@H](CCC(N)=O)NC1=O` [Compound 45] (H-CFIQNCP[X3]G-NH2; disulfide 1-6; N-terminus and C-terminus assumed), the “selectivity hOT/hV1a” value in assay [1] (EC50 ratio) worked out at 18. This compound showed a pEC50 on hV1a receptor of 8.78.
`CC[C@H](C)[C@@H]1NC(=O)[C@H](Cc2ccsc2)NC(=O)[C@@H](N)CSSC[C@@H](C(=O)N2CCC[C@H]2C(=O)N[C@@H](CCN)C(=O)NCC(N)=O)NC(=O)[C@H](CC(N)=O)NC(=O)[C@H](CC(N)=O)NC1=O` [Compound 37] (H-C[3Thi]INNCP[Dab]G-NH2; disulfide 1-6; N-terminus and C-terminus assumed): the “selectivity hOT/hV1a” value in assay [1] (setting [2]) is listed as “+ (selective hV1a receptor agonist; EC50 hOT/hV1a ratio not determined due to very low agonist efficacy (<30% compared to AVP) at the hOT receptor)”. Besides, the pEC50 at hV1a receptor (setting [3]) was 8.13.
Taken in the same sequence, the figures for `CC[C@H](C)[C@@H]1NC(=O)[C@H](Cc2ccccc2)NC(=O)[C@@H](N)CSSC[C@@H](C(=O)N2CCC[C@H]2C(=O)N[C@@H](CCCN)C(=O)NCC(N)=O)NC(=O)[C@H](CC(N)=O)NC(=O)[C@H](CCC(=O)NO)NC1=O` [Compound 16] (H-CFIE(NHOH)NCP[Orn]G-NH2; disulfide 1-6; N-terminus and C-terminus assumed) were “+ (selective hV1a receptor agonist; EC50 hOT/hV1a ratio not determined due to very low agonist efficacy (<30% compared to AVP) at the hOT receptor)” and 7.93.
Taken in the same sequence, the figures for `CC[C@H](C)[C@@H]1NC(=O)[C@H](Cc2ccsc2)NC(=O)[C@@H](N)CSSC[C@@H](C(=O)N2CCC[C@H]2C(=O)N[C@@H](CCCN)C(=O)NCC(N)=O)NC(=O)[C@H](CC(N)=O)NC(=O)[C@H](CC(N)=O)NC1=O` [Compound 35] (H-C[3Thi]INNCP[Orn]G-NH2; disulfide 1-6) were “+ (selective hV1a receptor agonist; EC50 hOT/hV1a ratio not determined due to very low agonist efficacy (<30% compared to AVP) at the hOT receptor)” and 8.14.
Taken in the same sequence, the figures for `CC[C@H](C)[C@@H]1NC(=O)[C@H](Cc2ccccc2)NC(=O)[C@@H](N)CSSC[C@@H](C(=O)N2CCC[C@H]2C(=O)N[C@@H](CCNC(C)C)C(=O)NCC(N)=O)NC(=O)[C@H](CC(N)=O)NC(=O)[C@H](CCCC(N)=O)NC1=O` [Compound 22] (H-CFI[Aad](NH2)NCP[Dab(iPr)]G-NH2; disulfide 1-6; N-terminus and C-terminus assumed) were “+ (selective hV1a receptor agonist; EC50 hOT/hV1a ratio not determined due to very low agonist efficacy (<30% compared to AVP) at the hOT receptor)” and 7.74.
Take `CCNC(=O)C[C@@H]1NC(=O)[C@H]([C@@H](C)CC)NC(=O)[C@H](Cc2ccccc2)NC(=O)[C@@H](N)CSSC[C@@H](C(=O)N2CCC[C@H]2C(=O)N[C@@H](CCCN)C(=O)NCC(N)=O)NC(=O)[C@H](CC(N)=O)NC1=O` [Compound 48] (H-CFID(NHEt)NCP[Orn]G-NH2; disulfide 1-6; N-terminus and C-terminus assumed): the “selectivity hOT/hV1a” value in assay [1] (setting [2]) was “+ (selective hV1a receptor agonist; EC50 hOT/hV1a ratio not determined due to very low agonist efficacy (<30% compared to AVP) at the hOT receptor)”. Besides, the pEC50 at hV1a receptor (setting [3]) was 8.24.
Regarding `CC[C@H](C)[C@@H]1NC(=O)[C@H](Cc2ccco2)NC(=O)[C@@H](N)CSSC[C@@H](C(=O)N2CCC[C@H]2C(=O)N[C@@H](CCCNC(C)C)C(=O)NCC(N)=O)NC(=O)[C@H](CC(N)=O)NC(=O)[C@H](CC(N)=O)NC1=O` [Compound 42] (H-C[Ala(2-furyl)]INNCP[Orn(iPr)]G-NH2; disulfide 1-6), the “selectivity hOT/hV1a” value in assay [1] is “+ (key: +: selective hV1a receptor agonist; EC50 hOT/hV1a ratio not determined due to very low agonist efficacy (<30% compared to AVP) at the hOT receptor)”. At hV1a receptor, this compound showed a pEC50 of 8.20.
With `CC[C@H](C)[C@@H]1NC(=O)[C@H](Cc2ccccc2)NC(=O)[C@@H](N)CSSC[C@@H](C(=O)N2CCC[C@H]2C(=O)N[C@@H](CCCN)C(=O)NCC(N)=O)NC(=O)[C@H](CC(N)=O)NC(=O)[C@H](CC(=O)NO)NC1=O` [Compound 24] (H-CFID(NHOH)NCP[Orn]G-NH2; disulfide 1-6; N-terminus and C-terminus assumed), the “selectivity hOT/hV1a” value in assay [1] (setting [2]) is on record as “+ (selective hV1a receptor agonist; EC50 hOT/hV1a ratio not determined due to very low agonist efficacy (<30% compared to AVP) at the hOT receptor)”. Further, the pEC50 on hV1a receptor (setting [3]) was 8.39.
Taken in the same sequence, the figures for `CC[C@H](C)[C@@H]1NC(=O)[C@H](Cc2cscn2)NC(=O)[C@@H](N)CSSC[C@@H](C(=O)N2CCC[C@H]2C(=O)N[C@@H](CCN)C(=O)NCC(N)=O)NC(=O)[C@H](CC(N)=O)NC(=O)[C@H](CCC(N)=O)NC1=O` [Compound 13] (H-C[Ala(4-thiazolyl)]IQNCP[Dab]G-NH2; disulfide 1-6; N-terminus and C-terminus assumed) were “+ (selective hV1a receptor agonist; EC50 hOT/hV1a ratio not determined due to very low agonist efficacy (<30% compared to AVP) at the hOT receptor)” and 7.73.
Taken in the same sequence, the figures for `CC[C@H](C)[C@@H]1NC(=O)[C@H](Cc2cccs2)NC(=O)[C@@H](N)CSSC[C@@H](C(=O)N2CCC[C@H]2C(=O)N[C@@H](CCCN)C(=O)NCC(N)=O)NC(=O)[C@H](CC(N)=O)NC(=O)[C@H](CC(N)=O)NC1=O` [Compound 33] (H-C[2Thi]INNCP[Orn]G-NH2; disulfide 1-6; N-terminus and C-terminus assumed) were “+ (selective hV1a receptor agonist; EC50 hOT/hV1a ratio not determined due to very low agonist efficacy (<30% compared to AVP) at the hOT receptor)” and 7.84.
Take `CCNC(=O)CC[C@@H]1NC(=O)[C@H]([C@@H](C)CC)NC(=O)[C@H](Cc2ccccc2)NC(=O)[C@@H](N)CSSC[C@@H](C(=O)N2CCC[C@H]2C(=O)N[C@@H](CCCN)C(=O)NCC(N)=O)NC(=O)[C@H](CC(N)=O)NC1=O` [Compound 20] (H-CFIE(NHEt)NCP[Orn]G-NH2; disulfide 1-6; N-terminus and C-terminus assumed): the “selectivity hOT/hV1a” value in assay [1] (setting [2]) is reported as “+ (selective hV1a receptor agonist; EC50 hOT/hV1a ratio not determined due to very low agonist efficacy (<30% compared to AVP) at the hOT receptor)”. Also, at hV1a receptor (setting [3]), the pEC50 is 7.41.

The values above are taken from patent publication US8222202B2 (priority 2006, dated 2012).
